Assay results published in PMC11125359 (Pharmaceuticals, 2024).
Where two headings read alike, the source gives them in different places.

Key:
[1] = system: human colon cancer (Caco-2) cell line; assay: cells; type: cell-based; settings: for Viability %, Caco-2, 1st concentration: Conc.: 5a 13.45, 5d 12.64, 5e 12.29, 5f 11.81, 7a 12.72, 7f 11.24, DOX 11.50; for Viability %, Caco-2, 2nd concentration: Conc.: 5a 26.91, 5d 25.27, 5e 24.58, 5f 23.63, 7a 25.43, 7f 22.48, DOX 23.00; for Viability %, Caco-2, 3rd concentration: Conc.: 5a 53.81, 5d 50.55, 5e 49.15, 5f 47.26, 7a 50.86, 7f 44.96, DOX 46.00; for Viability %, Caco-2, 4th concentration: Conc.: 5a 107.63, 5d 101.09, 5e 98.31, 5f 94.51, 7a 101.72, 7f 89.93, DOX 91.99; for Viability %, Caco-2, 5th concentration: Conc.: 5a 215.26, 5d 202.19, 5e 196.61, 5f 189.03, 7a 203.44, 7f 179.85, DOX 183.99; for IC50: Homo sapiens, Caco-2, 48 h, MTT, mean ± SE, read-out: Cytotoxic activity IC50, Colon (Caco-2); for Therapeutic Index (TI), Colon (Caco-2): IC50 on normal cells (WI-38)/IC50 on Caco-2
[2] = system: Bcl-2; assay: Bcl-2 ELISA in treated A549 cells; type: cell-based, human; settings: DMSO control 9.83 ± 0.05
[3] = system: α-glucosidase; assay: α-Glucosidase inhibition (anti-diabetic); type: biochemical; settings: equal concentrations (1000 µg/mL); mean ± SE
[4] = Iron-reducing power (IRP); settings: equal concentrations (1000 µg/mL); mean ± SE, three replicates
Experimental: (§1) All in vitro biological activities were assessed in the tested compounds at equal concentrations (1000 µg/mL). All assays were carried out in triplicate.
In vitro biological activities
(§2) The total antioxidant capacity (TAC) was determined by analyzing the green phosphate/Mo5+ complex at a wavelength (λ) of 695 nm, following the procedure described by Prieto
(§3) et al. Samples (at each concentration) were mixed with a reagent solution containing 0.3 N sulfuric
(§4) acid, 28 mM sodium phosphate, and 4 mM ammonium molybdate. Methanol (80%) was used in place
(§5) of the sample for the blank. The tubes were sealed and incubated in a boiling water bath for 90
(§6) minutes. After cooling to room temperature, the absorbance was measured at 695 nm against the
(§7) blank. Ascorbic acid was used at the same concentrations as a standard. The antioxidant capacity was
(§8) expressed as mg gallic acid equivalent per gram weight.
(§9) The iron reducing power was determined as µg/mL using the method proposed by Oyaizu
(§10) In brief, 1ml of the tested sample (at each concentration) was combined with 1mL of 200mM
(§11) sodium phosphate buffer (pH 6.6) and 1mL of 1% potassium ferricyanide. The mixture was then
(§12) incubated at 50°C for 20 minutes, followed by the addition of 1mL of trichloroacetic acid (10%). After
(§13) centrifugation at 2000rpm for 10 minutes, the upper layer solution (2.5 mL) was mixed with 2.5 mL of double deionized water and 1mL of fresh ferric chloride (0.1%). The absorbance was measured at
(§14) 700nm against a blank prepared without the sample. Ascorbic acid was used at the same
(§15) concentrations as a standard. A high absorbance at 700nm indicates a higher reducing power in the
(§16) The 1,1-Diphenyl-2-picryl-hydrazyl (DPPH) radical scavenging activities were evaluated using the method described by Rahman et al. An antioxidant substance capable of donating a
(§17) hydrogen atom to a solution containing DPPH- can reduce the stable free radical, causing the solution
(§18) to change color from violet to pale yellow. The remaining DPPH- radical was quantified by
(§19) nm using a spectroscopic method. Two milliliters of a DPPH solution (100 µM) in ethanol were mixed
(§20) with 2 mL of the sample (at each concentration). The reaction mixture for each concentration was
(§21) thoroughly vortexed and then incubated in the dark at room temperature for 30 minutes. The
(§22) absorbance was then measured spectrophotometrically at 518 nm against a blank (ethanol). For the
(§23) control, 2 mL of ethanol was added instead of the sample and run simultaneously with the test.
(§24) Ascorbic acid was used at the same concentrations as a positive control. Percent inhibition of the
(§25) DPPH free radical was calculated. The median inhibitory concentration (IC 50) for each tested
(§26) The procedure for the 2,2'-azinobis-(3-ethylbenzothiazoline-6-sulfonic acid) (ABTS) assay
(§27) potassium persulfate solution (2.4 mM). The working solution was prepared by mixing the two stock
(§28) solutions in equal quantities and allowing them to react at room temperature in a dark place for 14
(§29) hours. The solution was then diluted by mixing 1 mL of ABTS solution with 60 mL of methanol to
(§30) was prepared for each assay. The tested samples (at each concentration) were allowed to react with 1
(§31) mL of the ABTS solution, and the absorbance was taken at 734 nm after 7 minutes using a
(§32) spectrophotometer. The ABTS scavenging capacities of the samples were compared with that of
(§33) ascorbic acid (at the same concentrations).

[5] = system: α-amylase; assay: α-Amylase inhibition (anti-diabetic); type: biochemical; settings: equal concentrations (1000 µg/mL); mean ± SE
[6] = biological target: acetylcholinesterase (AChE) (Homo sapiens, UniProt P22303); assay: biochemical; settings: same concentration (1000 µg/mL); mean ± SE
acetylcholinesterase (AChE), sequence (P22303 32-614, species assumed): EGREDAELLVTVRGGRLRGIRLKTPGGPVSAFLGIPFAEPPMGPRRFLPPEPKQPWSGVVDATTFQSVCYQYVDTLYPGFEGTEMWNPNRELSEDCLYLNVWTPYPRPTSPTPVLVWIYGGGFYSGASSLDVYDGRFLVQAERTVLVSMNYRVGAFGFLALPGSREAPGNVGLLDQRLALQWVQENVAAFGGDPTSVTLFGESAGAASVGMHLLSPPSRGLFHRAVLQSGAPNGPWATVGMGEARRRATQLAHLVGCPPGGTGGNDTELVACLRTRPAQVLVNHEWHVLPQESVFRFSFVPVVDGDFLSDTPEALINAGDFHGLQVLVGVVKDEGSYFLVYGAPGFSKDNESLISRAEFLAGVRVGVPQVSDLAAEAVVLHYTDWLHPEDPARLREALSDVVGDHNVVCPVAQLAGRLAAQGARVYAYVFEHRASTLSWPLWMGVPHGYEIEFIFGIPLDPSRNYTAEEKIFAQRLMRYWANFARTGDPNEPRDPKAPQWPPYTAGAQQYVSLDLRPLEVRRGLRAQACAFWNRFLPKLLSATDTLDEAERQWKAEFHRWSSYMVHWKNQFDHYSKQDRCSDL

[7] = system: proteinase enzyme (trypsin); assay: Proteinase enzyme inhibition (anti-inflammatory); type: biochemical; settings: equal concentrations (1000 µg/mL); mean ± SE
[8] = Cytotoxic activity, MTT assay, normal lung (WI-38); type: cell-based; settings: human, WI-38 normal lung cells; for IC50 at 48 h: MTT, mean ± SE, read-out: Cytotoxic activity IC50, Normal Lung (WI-38)
[9] = biological target: bovine serum albumin (BSA) (Bos taurus, UniProt P02769); settings: equal concentrations (1000 µg/mL); mean ± SE
bovine serum albumin (BSA), sequence (P02769 25-607): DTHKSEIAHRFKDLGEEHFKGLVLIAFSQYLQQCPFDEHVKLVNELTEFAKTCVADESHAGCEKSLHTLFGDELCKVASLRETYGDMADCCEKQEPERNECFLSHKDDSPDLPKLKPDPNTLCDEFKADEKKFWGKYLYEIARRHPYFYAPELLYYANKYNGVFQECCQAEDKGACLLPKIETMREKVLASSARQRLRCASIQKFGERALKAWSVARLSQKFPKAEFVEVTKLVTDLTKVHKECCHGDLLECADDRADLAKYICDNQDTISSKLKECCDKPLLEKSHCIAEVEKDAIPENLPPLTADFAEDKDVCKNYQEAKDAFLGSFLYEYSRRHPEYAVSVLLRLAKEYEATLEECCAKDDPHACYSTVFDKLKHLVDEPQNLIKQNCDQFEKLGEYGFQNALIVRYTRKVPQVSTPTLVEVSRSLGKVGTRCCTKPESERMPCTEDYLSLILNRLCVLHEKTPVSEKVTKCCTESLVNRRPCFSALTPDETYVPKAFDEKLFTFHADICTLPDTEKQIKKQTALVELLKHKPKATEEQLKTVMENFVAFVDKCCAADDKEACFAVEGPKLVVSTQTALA

[10] = Total antioxidant capacity (TAC), phosphomolybdenum method; settings: equal concentrations (1000 µg/mL); mean ± SE, three replicates
Experimental: as §1
In vitro biological activities
as §2, §3, §4, §5, §6, §7, §8, §9, §10, §11, §12, §13, §14, §15, §16, §17, §18, §19, §20, §21, §22, §23, §24, §25, §26, §27, §28, §29, §30, §31, §32, §33

[11] = system: caspase-3; assay: Caspase-3 ELISA in treated A549 cells; type: cell-based, human; settings: DMSO control 85.92 ± 0.12
[12] = ABTS radical scavenging assay; settings: equal concentrations (1000 µg/mL); mean ± SE
Experimental: as §1
In vitro biological activities
as §2, §3, §4, §5, §6, §7, §8, §9, §10, §11, §12, §13, §14, §15, §16, §17, §18, §19, §20, §21, §22, §23, §24, §25, §26, §27, §28, §29, §30, §31, §32, §33

[13] = system: human lung cancer (A549) cell line; assay: Cytotoxic activity, MTT assay, lung (A549); settings: for Viability %, A549, 1st concentration: Conc.: 5a 13.45, 5d 12.64, 5e 12.29, 5f 11.81, 7a 12.72, 7f 11.24, DOX 11.50; for Viability %, A549, 2nd concentration: Conc.: 5a 26.91, 5d 25.27, 5e 24.58, 5f 23.63, 7a 25.43, 7f 22.48, DOX 23.00; for Viability %, A549, 3rd concentration: Conc.: 5a 53.81, 5d 50.55, 5e 49.15, 5f 47.26, 7a 50.86, 7f 44.96, DOX 46.00; for Viability %, A549, 4th concentration: Conc.: 5a 107.63, 5d 101.09, 5e 98.31, 5f 94.51, 7a 101.72, 7f 89.93, DOX 91.99; for Viability %, A549, 5th concentration: Conc.: 5a 215.26, 5d 202.19, 5e 196.61, 5f 189.03, 7a 203.44, 7f 179.85, DOX 183.99; for IC50: Homo sapiens, A549, 48 h, read-out: Cytotoxic activity IC50, Lung (A549)
Experimental: It will be assayed against human lung cancer (A549) and colon (Caco-2) cell line in
comparison with normal lung (WI-38) cell line using 3-(4,5-dimethythiazol-2-yl)-2,5-diphenyl
tetrazolium bromide (MTT) assay by determining the optical density (OD) at 570 nm according to the
The cells were dispensed in a 96-well sterile microplate (3
µL of each compound or doxorubicin (positive control, in DMSO) for 48 h in a serum free medium
prior to the MTT assay. Subsequently, the media were carefully removed, and 40 µL of MTT (2.5
mg/mL) was added to each well and then incubated for an additional 4 h. Purple formazan dye
crystals were solubilized by the addition of 200 µL of DMSO. The absorbance was measured at 570 nm using a SpectraMax Paradigm Multi-Mode microplate reader. The relative cell viability was
experiments were conducted in triplicate. Percent of the cell-growth inhibition (%) and the IC 50 was
calculated using IC 50 calculation software. The concentrations used for calculating the IC 50 depend on

[14] = system: caspase-3; assay: Caspase-3 ELISA in treated Caco-2 cells; type: cell-based, human; settings: DMSO control 97.06 ± 0.14
[15] = system: Bcl-2; assay: Bcl-2 ELISA in treated Caco-2 cells; type: cell-based, human; settings: DMSO control 7.99 ± 0.08
[16] = DPPH radical-scavenging activity; settings: read-out: DPPH (IC50); mean ± SE, three replicates
Experimental: In vitro biological activities
as §16, §17, §18, §19, §20, §21, §22, §23, §24, §25

[17] = Conc. as printed: 5a 53.81, 5d 50.55, 5e 49.15, 5f 47.26, 7a 50.86, 7f 44.96, DOX 46.00, read-out: Viability %, WI-38, 3rd concentration
[18] = Conc. as printed: 5a 107.63, 5d 101.09, 5e 98.31, 5f 94.51, 7a 101.72, 7f 89.93, DOX 91.99, read-out: Viability %, WI-38, 4th concentration
[19] = Conc.: 5a 13.45, 5d 12.64, 5e 12.29, 5f 11.81, 7a 12.72, 7f 11.24, DOX 11.50, read-out: Viability %, WI-38, 1st concentration
[20] = Conc.: 5a 26.91, 5d 25.27, 5e 24.58, 5f 23.63, 7a 25.43, 7f 22.48, DOX 23.00, read-out: Viability %, WI-38, 2nd concentration
[21] = Conc.: 5a 215.26, 5d 202.19, 5e 196.61, 5f 189.03, 7a 203.44, 7f 179.85, DOX 183.99, read-out: Viability %, WI-38, 5th concentration

COc1ccc(Nc2n[nH]c(/N=C/c3ccc(N4CCCCC4)cc3)c2C(=O)Nc2ccccc2)cc1 [5d]
Viability %, Caco-2, 1st concentration [1]: 70.71%
Viability %, Caco-2, 2nd concentration [1]: 51.15%
Viability %, Caco-2, 3rd concentration [1]: 40.54%
Viability %, Caco-2, 4th concentration [1]: 26.77%
Viability %, Caco-2, 5th concentration [1]: 23.43%
IC50 [1]: 62.33 ± 0.14 µM
Therapeutic Index (TI), Colon (Caco-2) [1]: 11.73
Bcl-2 level, Lung (A549) [2]: 2.81 ± 0.01 ng/mL
Inhibition (%) α-Glucosidase [3]: 27.84 ± 0.05%
Iron-Reducing Power (IRP) [4]: 35.51 ± 0.07 µg/mL
Inhibition (%) α-Amylase [5]: 32.37 ± 0.05%
Inhibition (%) Acetylcholinesterase [6]: 62.11 ± 0.04%
inhibition at 1000 µg/mL [6]: 62 ± 0.04%
Inhibition (%) Proteinase [7]: 24.17 ± 0.03%
viability at 48 h [8, 17]: 82.7%
viability at 48 h [8, 18]: 76.8%
viability at 48 h [8, 19]: 98.7%
viability at 48 h [8, 20]: 90.7%
viability at 48 h [8, 21]: 62.7%
IC50 at 48 h [8]: 732 ± 10.5 µM
Inhibition (%) Protein Denaturation [9]: 27.79 ± 0.03%
Total Antioxidant Capacity (TAC) [10]: 54.13 ± 0.20 mg Gallic Acid/g
Caspase-3 level, Lung (A549) [11]: 300.73 ± 0.42 pg/mL
ABTS (%) inhibition [12]: 78.18 ± 0.05%
Viability %, A549, 1st concentration [13]: 90.46%
Viability %, A549, 2nd concentration [13]: 79.41%
Viability %, A549, 3rd concentration [13]: 48.01%
Viability %, A549, 4th concentration [13]: 36.58%
Viability %, A549, 5th concentration [13]: 18.10%
IC50 [13]: 48.61 ± 0.14 µM
Caspase-3 level, Colon (Caco-2) [14]: 242.65 ± 0.36 pg/mL
Bcl-2 level, Colon (Caco-2) [15]: 3.20 ± 0.03 ng/mL
IC50 [16]: 23.98 ± 0.01 µM

Cc1c(C=Nc2[nH]nc(Nc3ccccc3)c2C(=O)Nc2ccccc2)c(=O)n(-c2ccccc2)n1C [7a]
Viability %, Caco-2, 1st concentration [1]: 70.21%
Viability %, Caco-2, 2nd concentration [1]: 50.65%
Viability %, Caco-2, 3rd concentration [1]: 40.04%
Viability %, Caco-2, 4th concentration [1]: 26.27%
Viability %, Caco-2, 5th concentration [1]: 22.93%
IC50 [1]: 42.42 ± 0.18 µM
Therapeutic Index (TI), Colon (Caco-2) [1]: 17.35
Bcl-2 level, Lung (A549) [2]: 2.62 ± 0.01 ng/mL
Inhibition (%) α-Glucosidase [3]: 26.91 ± 0.05%
Iron-Reducing Power (IRP) [4]: 34.33 ± 0.07 µg/mL
Inhibition (%) α-Amylase [5]: 31.30 ± 0.05%
inhibition at 1000 µg/mL [6]: 42.12 ± 0.03%
Inhibition (%) Proteinase [7]: 23.37 ± 0.03%
viability at 48 h [8, 17]: 82.7%
viability at 48 h [8, 18]: 76.8%
viability at 48 h [8, 19]: 98.7%
viability at 48 h [8, 20]: 90.7%
viability at 48 h [8, 21]: 62.7%
IC50 at 48 h [8]: 736 ± 7.95 µM
Inhibition (%) Protein Denaturation [9]: 26.87 ± 0.03%
Total Antioxidant Capacity (TAC) [10]: 52.34 ± 0.19 mg Gallic Acid/g
Caspase-3 level, Lung (A549) [11]: 322.21 ± 0.45 pg/mL
ABTS (%) inhibition [12]: 75.59 ± 0.05%
Viability %, A549, 1st concentration [13]: 90.96%
Viability %, A549, 2nd concentration [13]: 79.91%
Viability %, A549, 3rd concentration [13]: 48.51%
Viability %, A549, 4th concentration [13]: 37.08%
Viability %, A549, 5th concentration [13]: 18.60%
IC50 [13]: 49.4 ± 0.18 µM
Caspase-3 level, Colon (Caco-2) [14]: 363.98 ± 0.54 pg/mL
Bcl-2 level, Colon (Caco-2) [15]: 2.13 ± 0.02 ng/mL
IC50 [16]: 24.94 ± 0.01 µM

COc1ccc(Nc2n[nH]c(N=Cc3c(C)n(C)n(-c4ccccc4)c3=O)c2C(=O)Nc2ccc(Cl)cc2)cc1 [7f]
Viability %, Caco-2, 1st concentration [1]: 81.68%
Viability %, Caco-2, 2nd concentration [1]: 73.16%
Viability %, Caco-2, 3rd concentration [1]: 54.13%
Viability %, Caco-2, 4th concentration [1]: 31.97%
Viability %, Caco-2, 5th concentration [1]: 24.59%
IC50 [1]: 49.01 ± 0.24 µM
Therapeutic Index (TI), Colon (Caco-2) [1]: 11.06
Bcl-2 level, Lung (A549) [2]: 3.45 ± 0.02 ng/mL
Inhibition (%) α-Glucosidase [3]: 27.79 ± 0.05%
Iron-Reducing Power (IRP) [4]: 35.45 ± 0.07 µg/mL
Inhibition (%) α-Amylase [5]: 32.31 ± 0.05%
Inhibition (%) Acetylcholinesterase [6]: 62.00 ± 0.04%
inhibition at 1000 µg/mL [6]: 62.11 ± 0.04%
Inhibition (%) Proteinase [7]: 24.13 ± 0.03%
viability at 48 h [8, 17]: 79.3%
viability at 48 h [8, 18]: 73.3%
viability at 48 h [8, 19]: 95.2%
viability at 48 h [8, 20]: 87.2%
viability at 48 h [8, 21]: 59.2%
IC50 at 48 h [8]: 543 ± 8.52 µM
Inhibition (%) Protein Denaturation [9]: 27.75 ± 0.03%
Total Antioxidant Capacity (TAC) [10]: 54.04 ± 0.20 mg Gallic Acid/g
Caspase-3 level, Lung (A549) [11]: 244.88 ± 0.34 pg/mL
ABTS (%) inhibition [12]: 78.05 ± 0.05%
Viability %, A549, 1st concentration [13]: 96.21%
Viability %, A549, 2nd concentration [13]: 86.06%
Viability %, A549, 3rd concentration [13]: 59.66%
Viability %, A549, 4th concentration [13]: 45.23%
Viability %, A549, 5th concentration [13]: 18.95%
IC50 [13]: 55.74 ± 0.24 µM
Caspase-3 level, Colon (Caco-2) [14]: 276.62 ± 0.41 pg/mL
Bcl-2 level, Colon (Caco-2) [15]: 2.80 ± 0.03 ng/mL
IC50 [16]: 21.37 ± 0.01 µM
